Experimental data published in US6737383B1, “Herbicidal oxadiazolidines” (priority 1999, dated 2004).

Columns and labels:
[1] = tested on: crabgrass; experiment: Test B pre/postemergence crabgrass; type: in vivo, Digitaria sanguinalis
Method in brief: (§1)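 Herbicidal effect was estimated by eye on a ten-point control scale after plants spent twelve to sixteen days in a greenhouse following soil or foliar treatment. Foliar sprays targeted plants at one to four leaves; all doses were formulated in a non-phytotoxic solvent with surfactant.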

[2] = tested on: rape; experiment: Test B pre/postemergence rape; type: in vivo, Brassica napus
Method in brief: as §1

[3] = tested on: giant foxtail; experiment: Test B pre/postemergence giant foxtail; type: in vivo, Setaria faberii
Method in brief: as §1

[4] = tested on: smallflower flatsedge; experiment: Test B flood test smallflower flatsedge; type: in vivo, Cyperus difformis
Method in brief: (§2)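 Read-out is a visual response score from 0 (no effect) to 10 (complete control), assigned by comparison with untreated controls. Treatment was applied at the 2-leaf stage, and plants stayed in the greenhouse for twelve to sixteen days before scoring.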

[5] = tested on: pigweed; experiment: Test B pre/postemergence pigweed; type: in vivo, Amaranthus retroflexus
Method in brief: as §1

[6] = tested on: wild oat; experiment: Test B pre/postemergence wild oat; type: in vivo, Avena fatua
Method in brief: as §1

[7] = tested on: blackgrass; experiment: Test B pre/postemergence blackgrass; type: in vivo, Alopecurus myosuroides
Method in brief: as §1

[8] = tested on: velvetleaf; experiment: Test B pre/postemergence velvetleaf; type: in vivo, Abutilon theophrasti
Method in brief: as §1

[9] = tested on: bedstraw; experiment: Test B pre/postemergence bedstraw; type: in vivo, Galium aparine
Method in brief: as §1

[10] = tested on: sugar beet; experiment: Test B pre/postemergence sugar beet; type: in vivo, Beta vulgaris
Method in brief: as §1

[11] = tested on: cocklebur; experiment: Test B pre/postemergence cocklebur; type: in vivo, Xanthium strumarium
Method in brief: as §1

[12] = tested on: wheat; experiment: Test B pre/postemergence wheat; type: in vivo, Triticum aestivum
Method in brief: as §1

[13] = tested on: bamyardgrass; experiment: Test B flood test barnyardgrass; type: in vivo, Echinochloa crus-galli
Method in brief: as §2

[14] = tested on: duck salad; experiment: Test B flood test duck salad; type: in vivo, Heteranthera limosa
Method in brief: as §2

[15] = tested on: soybean; experiment: Test B pre/postemergence soybean; type: in vivo, Glycine max
Method in brief: as §1

[16] = tested on: purple nutsedge; experiment: Test B pre/postemergence purple nutsedge; type: in vivo, Cyperus rotundus
Method in brief: as §1

[17] = tested on: corn; experiment: Test B pre/postemergence corn; type: in vivo, Zea mays
Method in brief: as §1

[18] = tested on: surinam grass; experiment: Test B pre/postemergence surinam grass; type: in vivo, Brachiaria decumbens
Method in brief: as §1

[19] = tested on: morningglory; experiment: Test B pre/postemergence morningglory; type: in vivo, Ipomoea hederacea
Method in brief: as §1

[20] = tested on: rice; experiment: Test B flood test rice; type: in vivo, Oryza sativa
Method in brief: as §2

[21] = Preemergence, Rate 62 g/ha, scale of 0 to 10 where 0 is no effect and 10 is complete control
[22] = Preemergence, Rate 250 g/ha, scale of 0 to 10 where 0 is no effect and 10 is complete control
[23] = Preemergence, Rate 500 g/ha, scale of 0 to 10 where 0 is no effect and 10 is complete control
[24] = Rate 125 g/ha, Preemergence, scale of 0 to 10 where 0 is no effect and 10 is complete control
[25] = Rate 500 g/ha, Postemergence, scale 0 to 10, 0 no effect, 10 complete control
[26] = Rate 62 g/ha, headed Pre-emergence (flood test species), scale 0 to 10 (0 no effect, 10 complete control)
[27] = Rate 125 g/ha, Pre-emergence, flood test species, scale 0 to 10 where 0 is no effect and 10 is complete control
[28] = Rate 250 g/ha, Pre-emergence, flood-test species, scale 0 to 10, 0 is no effect, 10 is complete control
[29] = Rate 500 g/ha, Pre-emergence, flood test species, scale 0 to 10 (0 no effect, 10 complete control)
[30] = Rate 62 g/ha, Postemergence, scale of 0 to 10 where 0 is no effect and 10 is complete control
[31] = Rate 125 g/ha, Postemergence, scale 0 to 10

CCCCCCCCCCCCCCCCCCCn1c(=O)on(C(=O)N(c2ccc(F)cc2)C(C)C)c1=O [Compound 253]
0: Crabgrass plant response rating [1, 21] | Crabgrass plant response rating [1, 22] | Plant response rating, Crabgrass [1, 23] | Crabgrass plant response rating [1, 24] | Plant response rating (0 to 10; 0 is no effect, 10 is complete control), Crabgrass ([1]; Rate 250 g/ha, Postemergence) | Crabgrass plant response rating [1, 25] | Rape plant response rating [2, 21] | Rape plant response rating [2, 22] | Plant response rating, Rape [2, 23] | Rape plant response rating [2, 24] | Plant response rating (0 to 10; 0 is no effect, 10 is complete control), Rape ([2]; Rate 250 g/ha, Postemergence) | Rape plant response rating [2, 25] | Giant foxtail plant response rating [3, 21] | Giant foxtail plant response rating [3, 22] | Plant response rating, Giant foxtail [3, 23] | Giant foxtail plant response rating [3, 24] | Plant response rating (0 to 10; 0 is no effect, 10 is complete control), Giant foxtail ([3]; Rate 250 g/ha, Postemergence) | Giant foxtail plant response rating [3, 25] | S. Flatsedge plant response rating [4, 26] | S. Flatsedge plant response rating [4, 27] | S. Flatsedge plant response rating [4, 28] | S. Flatsedge plant response rating [4, 29] | Redroot pigweed plant response rating [5, 21] | Redroot pigweed plant response rating [5, 22] | Plant response rating, Redroot pigweed [5, 23] | Redroot pigweed plant response rating [5, 24] | Plant response rating (0 to 10; 0 is no effect, 10 is complete control), Redroot pigweed ([5]; Rate 250 g/ha, Postemergence) | Redroot pigweed plant response rating [5, 25] | Wild oats plant response rating [6, 21] | Wild oats plant response rating [6, 22] | Plant response rating, Wild oats [6, 23] | Wild oats plant response rating [6, 24] | Wild oats plant response rating [6, 25] | Blackgrass plant response rating [7, 21] | Blackgrass plant response rating [7, 22] | Plant response rating, Blackgrass [7, 23] | Blackgrass plant response rating [7, 30] | Blackgrass plant response rating [7, 31] | Blackgrass plant response rating [7, 24] | Plant response rating (0 to 10; 0 is no effect, 10 is complete control), Blackgrass ([7]; Rate 250 g/ha, Postemergence) | Blackgrass plant response rating [7, 25] | Velvetleaf plant response rating [8, 21] | Velvetleaf plant response rating [8, 22] | Plant response rating, Velvetleaf [8, 23] | Velvetleaf plant response rating [8, 24] | Velvetleaf plant response rating [8, 25] | Bedstraw plant response rating [9, 21] | Bedstraw plant response rating [9, 22] | Plant response rating, Bedstraw [9, 23] | Bedstraw plant response rating [9, 30] | Bedstraw plant response rating [9, 31] | Bedstraw plant response rating [9, 24] | Plant response rating (0 to 10; 0 is no effect, 10 is complete control), Bedstraw ([9]; Rate 250 g/ha, Postemergence) | Bedstraw plant response rating [9, 25] | Sugarbeets plant response rating [10, 21] | Sugarbeets plant response rating [10, 22] | Plant response rating, Sugarbeets [10, 23] | Sugarbeets plant response rating [10, 24] | Sugarbeets plant response rating [10, 25] | Cocklebur plant response rating [11, 21] | Cocklebur plant response rating [11, 22] | Plant response rating, Cocklebur [11, 23] | Cocklebur plant response rating [11, 30] | Cocklebur plant response rating [11, 31] | Cocklebur plant response rating [11, 24] | Plant response rating (0 to 10; 0 is no effect, 10 is complete control), Cocklebur ([11]; Rate 250 g/ha, Postemergence) | Cocklebur plant response rating [11, 25] | Wheat plant response rating [12, 21] | Wheat plant response rating [12, 22] | Plant response rating, Wheat [12, 23] | Wheat plant response rating [12, 24] | Wheat plant response rating [12, 25] | Barnyardgrass plant response rating [13, 26] | Barnyardgrass plant response rating [13, 27] | Barnyardgrass plant response rating [13, 28] | Barnyardgrass plant response rating [13, 29] | Ducksalad plant response rating [14, 26] | Ducksalad plant response rating [14, 27] | Ducksalad plant response rating [14, 28] | Ducksalad plant response rating [14, 29] | Soybean plant response rating [15, 21] | Soybean plant response rating [15, 22] | Plant response rating, Soybean [15, 23] | Soybean plant response rating [15, 24] | Soybean plant response rating [15, 25] | Plant response rating, Nutsedge [16, 23] | Plant response rating (0 to 10; 0 is no effect, 10 is complete control), Nutsedge ([16]; Rate 250 g/ha, Postemergence) | Nutsedge plant response rating [16, 25] | Corn plant response rating [17, 21] | Corn plant response rating [17, 22] | Plant response rating, Corn [17, 23] | Corn plant response rating [17, 30] | Corn plant response rating [17, 31] | Corn plant response rating [17, 24] | Plant response rating (0 to 10; 0 is no effect, 10 is complete control), Corn ([17]; Rate 250 g/ha, Postemergence) | Corn plant response rating [17, 25] | B. signalgrass plant response rating [18, 21] | B. signalgrass plant response rating [18, 22] | Plant response rating, B. signalgrass [18, 23] | B. signalgrass plant response rating [18, 30] | B. signalgrass plant response rating ([18]; Rate 125 g/ha, Postemergence, scale 0 (no effect) to 10 (complete control)) | B. signalgrass plant response rating [18, 24] | Plant response rating (0 to 10; 0 is no effect, 10 is complete control), B. signalgrass ([18]; Rate 250 g/ha, Postemergence) | B. signalgrass plant response rating [18, 25] | Morningglory plant response rating [19, 21] | Morningglory plant response rating [19, 22] | Plant response rating, Morningglory [19, 23] | Morningglory plant response rating [19, 24] | Plant response rating (0 to 10; 0 is no effect, 10 is complete control), Morningglory ([19]; Rate 250 g/ha, Postemergence) | Morningglory plant response rating [19, 25] | Rice plant response rating [20, 26] | Rice plant response rating [20, 27] | Rice plant response rating [20, 28] | Rice plant response rating [20, 29]
